# Values of other authors as cited in paper PMC6952392, “A combined computational and experimental strategy identifies mutations conferring resistance to drugs targeting the BCR-ABL fusion protein” (Communications Biology, 2020).
# Where two headings read alike, the source gives them in different places.
# How the values were obtained:
# [1] = safety window
smiles,measurement,setting,value
COc1cc(Nc2c(C#N)cnc3cc(OCCCN4CCN(C)CC4)c(OC)cc23)c(Cl)cc1Cl [bosutinib],in vitro inhibitory activity,BCR-ABL,sub-nanomolar range
Cc1cn(-c2cc(NC(=O)c3ccc(C)c(Nc4nccc(-c5cccnc5)n4)c3)cc(C(F)(F)F)c2)cn1 [nilotinib],effective safe plasma concentration,[1],< 1500 ng/mL
Cc1ccc(C(=O)Nc2ccc(CN3CCN(C)CC3)c(C(F)(F)F)c2)cc1C#Cc1cnc2cccnn12 [ponatinib],in vitro inhibitory activity,"BCR-ABL; general statement, no reference given",sub-nanomolar range
